Assay [1] concerns NIH/3T3 cells. The assay is described as follows: Antiproliferative activity, MTT assay, NIH/3T3. Format: cell-based. The settings on record: NIH3T3, mouse fibroblast, mean ± SD. How it is done: (§1) The antiproliferative effect of monothiooxalamides 1a–d and 2a–d was assessed in MCF-7 (human breast cancer cell line with estrogen, progesterone, and glucocorticoid receptors), MDA-MB-231 (triple-negative human breast cancer), MCF-10A (non-tumorigenic human mammary epithelial cell line), and NIH/3T3 (mouse fibroblast). The cytotoxicity is expressed as IC50 values in micromolar concentrations, Table 4. […] In contrast, the cytotoxic effect on triple-negative cells MDA-MB-231 was similar to that observed in MCF-10A. […] Nevertheless, it is worth considering that NIH/3T3 are mouse fibroblasts, while the other three cell lines are human cells; therefore, the physiological differences between both species could play an essential role in the exerted effect. Several studies have evaluated 2-aminobenzothiazole derivatives against various cell lines. The targets of this kind of compounds are wide, including HDAC6, tyrosine kinase receptors family (CSF1R kinase, EGFR kinase, VEGFR-2 kinase, FAK kinase), serine/threonine kinases, lysine-specific demethylase (LSD1), phosphoinositide 3-kinase (PI3K), topoisomerases (I and II), Heat shock protein (HSP90), p53, nuclear receptor binding set (NSD1), microsomal prostaglandin E synthase-1 (mPGES-1), and also as chelators of metal ions, which are necessaries for critical biological processes such as gene expression, oxygen transport, and cell respiration. In all cases, the IC50 values were reported in a wide range, from 1 nM to 50 µM. On the other hand, our research group reported a family of MTAs containing 2-aminopyridine, with an activity range of 0.19–18 µM against several human cancer cell lines (A2780-wt, A2780-cis-MSTO-211H, and HT-29). […] Whereas 1c could be a feasible candidate to obtain better results compared with 1a, 2a–c, which were highly cytotoxic to non-tumorigenic cells. As a perspective, the synergic activity of 1c, in combination with antioxidants like curcumin, resveratrol, and quercetin, could also be explored, with the aim to sensitize cancer cells against cytotoxic agents and diminish their toxicity in non-tumorigenic cells. In contrast, MTX, which is an antineoplastic drug, is widely used for many kinds of cancer treatments, including breast cancer. Their mechanism of action is related to the inhibition of dihydrofolate reductase (DHFR). […] Nevertheless, MTX exerted an undesirable effect on NIH/3T3 cells. Although the compounds were not better than MTX, their antiproliferative effect was similar to 2ABT, thioureas, 3-carboxy-coumarin sulfonamides, pyrimethamine conjugates, and N-hydroxycinnamide analogs. Highlighting its low toxicity to non-tumor cells, 1c might be a better option than methotrexate to reduce adverse side effects associated with chemotherapy.
MDA-MB-231 adenocarcinoma cell line was procured from ATCC (CRM-HTB-26TM). […] Cell culture was performed in the appropriate medium for each cell line (MCF-7, MDA-MB-231, MCF-10A, and NIH/3T3). MCF-7, MDA-MB-231, and NIH/3T3 cells were grown in Dulbecco’s modified Eagle Medium (DMEM) high-glucose with phenol red, supplemented with fetal bovine serum inactivated by heat (10%) (BioWest, Miami, FL, USA) and antibiotic (100 U/mL penicillin and […] streptomycin). MCF-10A were grown in DMEM-F12 medium, supplemented with 5% of horse serum inactivated by heat (Biowest, Miami, FL, USA), […] of insulin, 20 ng/mL of epidermal growth factor, 500 ng/mL hydrocortisone, and antibiotic (100 U/mL penicillin and […] streptomycin). […]

For a further assay, the system named is MCF-10A cells. The assay is described as follows: Antiproliferative activity, MTT assay, MCF-10A. Format: cell-based. The note with it: Homo sapiens, non-tumorigenic cells, mean ± SD. As to the method: as §1
(§2) MDA-MB-231 adenocarcinoma cell line was procured from ATCC (CRM-HTB-26TM). […] Cell culture was performed in the appropriate medium for each cell line (MCF-7, MDA-MB-231, MCF-10A, and NIH/3T3). MCF-7, MDA-MB-231, and NIH/3T3 cells were grown in Dulbecco’s modified Eagle Medium (DMEM) high-glucose with phenol red, supplemented with fetal bovine serum inactivated by heat (10%) (BioWest, Miami, FL, USA) and antibiotic (100 U/mL penicillin and […] streptomycin). MCF-10A were grown in DMEM-F12 medium, supplemented with 5% of horse serum inactivated by heat (Biowest, Miami, FL, USA), […] of insulin, 20 ng/mL of epidermal growth factor, 500 ng/mL hydrocortisone, and antibiotic (100 U/mL penicillin and […] streptomycin). All cell lines were incubated at 37 °C with 5% CO2 after reaching 80% confluence at 24 h. The cells were seeded in a 96-well cell culture plate (10,000 cells/well). After incubation, the cells were treated with compounds (1a–1d and 2a–2d) at varying concentrations (100, 50, 25, 12.5, and 6.25 µM) and then incubated for 42 h under standard conditions. […]

The test system of assay [2] is MCF-7 cells. The assay is described as follows: Antiproliferative activity, MTT assay, MCF-7. It counts as cell-based, human. The settings on record: for IC50: Homo sapiens, MCF7, MTT, mean ± SD of at least three independent experiments. How it is done:
as §1, §2

Assay [3] has as its system MDA-MB-231 cells. The assay is described as follows: Antiproliferative activity, MTT assay, MDA-MB-231. Format: cell-based. The note with it: Homo sapiens, mean ± SD of at least three independent experiments. As to the method:
as §1, §2

Assay [4] relates to MDA-MB-231 cells. The assay is described as follows: Annexin V apoptosis induction assay, MDA-MB-231. Format: cell-based, human. The note with it: MDA-MB-231, IC50 concentration, 48 h. The source says:
(§3) Apoptosis induction is one of the most common mechanisms of cell death exerted by antineoplastic drugs. This is because cancer cells can evade this cell death mechanism, allowing malignant cells to survive and leading to tumor progression. Apoptosis involves several physiological cell modifications, including the destabilization of the phospholipid bilayer and the subsequent exposure of phosphatidylserine. This phospholipid can be easily recognized by annexin V, a protein that is useful for identifying apoptotic cells. Therefore, apoptosis was determined for both breast cancer human cell lines, MCF-7 and MDA-MB-231, and the NIH/3T3 non-tumoral cell line. […] Regarding non-malignant fibroblast cells (NIH/3T3), a slight decrease in live cells was observed only for compound 1c (60%) compared to the control (81%) and MTX (72%), as shown in Figure 12.
The annexin V cytometry assay was performed on malignant cells (MCF-7 and MDA-MB-231) and non-malignant cells (NIH/3T3) using the Annexin V-FITC Apoptosis Detection kit (Santa Cruz Biotechnology). The corresponding cells were seeded in a 12-well plate as previously described and incubated under standard conditions (1.5 × 10^5 cells/well). After 24 h of incubation, the exhausted medium was replaced, and cells were treated at the IC50 concentration for compound 1c and MTX. After 48 h, the exhausted medium was recovered for cytometric measurements, and the cells were trypsinized, inactivated with DMEM, centrifuged, washed with PBS and centrifuged (1500 rpm, 5 min, 4 °C). The PBS was removed, and the remainder was drained on gauze. The formed pellet was shaken with 300 µL of the buffer from the flow cytometry kit (Miltenyi Biotec, Bergisch Gladbach, Germany), which had previously been prepared at a concentration of 1%. The sample was left to incubate for 15 min at room temperature, protected from light, and then 100 µL aliquots were taken to the flow cytometry equipment (BD FACSAria Fusion, Franklin Lakes, NJ, USA). Five microliters of annexin and two microliters of propidium iodide (100 µg/mL) were added to the reaction with the cells. […]

For assay [5], the system named is MDA-MB-231 cells. As to the kind of experiment: Wound closure (cell migration) assay. It counts as cell-based, human. The note with it: MDA-MB-231, treated at IC50 concentration; for wound closure rate: 0-48 h; for maximum wound closure: 48 h. How it is done:
The triple-negative cancer, produced by MDA-MB-231 cells, is highly invasive and metastatic, capable of migrating to other tissues. […] The wound closure begins at 12 h, at this time, there is a significant difference between cells treated with compound 1c and MTX compared with non-treated cells. Nevertheless, the maximum effect is observed at 48 h, when wound closure is complete for non-treated cells. For cells treated with compound 1c, the maximum wound closure was 51%, while for the reference drug, MTX, it was 38% at 48 h. In both cases, there is a significant difference from the control, with wound closure rates of −2.0 ± 0.1 (R = 0.98), −1.0 ± 0.1 (R = 0.94), and −0.7 ± 0.1 (0.88) in %area/h for control, 1c, and MTX, respectively. The results confirmed the capability of 1c to prevent cell migration in MDA-MB-231 cells, similar to the reference drug MTX, and other reported BTs.
The wound closure assay was performed according to the reported methods on MDA-MB-231 cell line. For this purpose, cells (2 × 10^5) were seeded in complete medium on a 24-well plate and incubated for 24 h under standard conditions. After that, the wound gap was made by scratching the cell monolayer with a 200 µL pipette tip. Cell debris and exhausted medium were discarded, washed with PBS, and the medium was replaced. […] The wound closure was monitored by microscopy at 12, 24, and 48 h, and the wound area was measured in duplicate in three independent experiments using ImageJ (1.54k) software. The results were expressed as a percentage of the control (cell culture medium with 0.1% DMSO).

The test system of assay [6] is MCF-7 cells. The assay is described as follows: Annexin V apoptosis induction assay, MCF-7. It counts as cell-based, human. The note with it: MCF-7, IC50 concentration, 48 h.
Text: as §3
(§4) The annexin V cytometry assay was performed on malignant cells (MCF-7 and MDA-MB-231) and non-malignant cells (NIH/3T3) using the Annexin V-FITC Apoptosis Detection kit (Santa Cruz Biotechnology). The corresponding cells were seeded in a 12-well plate as previously described and incubated under standard conditions (1.5 × 10^5 cells/well). After 24 h of incubation, the exhausted medium was replaced, and cells were treated at the IC50 concentration for compound 1c and MTX. […]

Assay [7] concerns NIH/3T3 cells. The assay is described as follows: Annexin V apoptosis induction assay, NIH/3T3. Format: cell-based, mouse. The note with it: NIH/3T3, IC50 concentration, 48 h; control 81%.
Text: as §3, §4

As for `O=C(Nc1nc2ccccc2s1)C(=S)NCc1ccccc1` [1a, N-(benzo[d]thiazol-2-yl)-2-(benzylamino)-2-thioxoacetamide], the IC50 in the assay on NIH/3T3 cells [1] came out at 29 ± 6 µM; with MCF-10A cells, 44 ± 6 µM; in the assay with MCF-7 cells [2], 95 ± 13 µM; in the assay on MDA-MB-231 cells [3] it was 72 ± 7 µM.

Consider `COc1ccccc1CNC(=S)C(=O)Nc1nc2ccccc2s1` [1b, N-(benzo[d]thiazol-2-yl)-2-((2-methoxybenzyl)amino)-2-thioxoacetamide], for which the IC50 in the assay with MCF-7 cells [2] and in the assay on MDA-MB-231 cells [3] was over 100 µM throughout.

For the molecule `COc1ccc(CNC(=S)C(=O)Nc2nc3ccccc3s2)cc1` [1c, N-(benzo[d]thiazol-2-yl)-2-((4-methoxybenzyl)amino)-2-thioxoacetamide], the IC50 in the assay with NIH/3T3 cells [1] was found to be 41 ± 5 µM; in the assay on MCF-10A cells, 55 ± 6 µM; in the assay on MCF-7 cells [2], 32 ± 5 µM; with MDA-MB-231 cells [3] it was 52 ± 8 µM. In addition, the “effect on cell viability” value with MDA-MB-231 cells [4] is recorded as “did not show a significant effect”. In the assay with MCF-7 cells [2] (MCF-7 vs MCF-10A), the “selectivity toward malignant cells, fold more active in MCF-7 than in MCF-10A” value is 1.7 fold. Further, the “fold more active on MCF-7 cells than on MDA-MB-231 cells” value with MCF-7 cells [2] (MCF-7 vs MDA-MB-231) is listed as 1.6 fold. Further, in the assay with MDA-MB-231 cells [5], the wound closure rate is −1.0 ± 0.1 %area/h. For the same molecule, the maximum wound closure in the assay with MDA-MB-231 cells [5] is given as 51%. In addition, the “late apoptosis cell population” value with MCF-7 cells [6] is given as “significant increase”. The live cells in the assay with NIH/3T3 cells [7] turned out to be 60%.

For the molecule `O=C(Nc1nc2ccccc2s1)C(=S)NCCc1ccccc1` [1d, N-(benzo[d]thiazol-2-yl)-2-(phenethylamino)-2-thioxoacetamide], the IC50 with MCF-7 cells [2] and in the assay on MDA-MB-231 cells [3] was over 100 µM each time.

Turning to `Cc1ccc2nc(NC(=O)C(=S)NCc3ccccc3)sc2c1` [2a, 2-(benzylamino)-N-(6-methylbenzo[d]thiazol-2-yl)-2-thioxoacetamide], the IC50 was 22 ± 4 µM in the assay with NIH/3T3 cells [1], 43 ± 6 µM with MCF-10A cells, 72 ± 9 µM in the assay on MCF-7 cells [2] and over 100 µM in the assay with MDA-MB-231 cells [3].

Consider `COc1ccccc1CNC(=S)C(=O)Nc1nc2ccc(C)cc2s1` [2b, 2-((2-methoxybenzyl)amino)-N-(6-methylbenzo[d]thiazol-2-yl)-2-thioxoacetamide], for which the IC50 is 42 ± 5 µM in the assay with MCF-10A cells, over 100 µM with MCF-7 cells [2] and over 100 µM with MDA-MB-231 cells [3].

Regarding `COc1ccc(CNC(=S)C(=O)Nc2nc3ccc(C)cc3s2)cc1` [2c, 2-((4-methoxybenzyl)amino)-N-(6-methylbenzo[d]thiazol-2-yl)-2-thioxoacetamide], the IC50 with NIH/3T3 cells [1] is 31 ± 6 µM; in the assay with MCF-10A cells it was 74 ± 12 µM; in the assay with MCF-7 cells [2], 88 ± 6 µM; in the assay with MDA-MB-231 cells [3], over 100 µM.

Take `Cc1ccc2nc(NC(=O)C(=S)NCCc3ccccc3)sc2c1` [2d, N-(6-methylbenzo[d]thiazol-2-yl)-2-(phenethylamino)-2-thioxoacetamide]: the IC50 in the assay on MCF-7 cells [2] and in the assay with MDA-MB-231 cells [3] was over 100 µM each time.

Regarding `CN(Cc1cnc2nc(N)nc(N)c2n1)c1ccc(C(=O)N[C@@H](CCC(=O)O)C(=O)O)cc1` [MTX, methotrexate, reference compound], the IC50 in the assay with NIH/3T3 cells [1] came out at 26 ± 5 µM; with MCF-10A cells it was 14 ± 3 µM; with MCF-7 cells [2], 0.8 ± 0.1 µM; with MDA-MB-231 cells [3] it was 28 ± 3 µM. For the same molecule, the “effect on cell viability” value in the assay with MDA-MB-231 cells [4] is on record as “did not show a significant effect”. The “percentage of late apoptotic cells” value in the assay with MDA-MB-231 cells [4] (non-treated cells 14%) stood at 9%. The wound closure rate in the assay with MDA-MB-231 cells [5] was −0.7 ± 0.1 %area/h. Further, the maximum wound closure in the assay on MDA-MB-231 cells [5] stood at 38%. Further, in the assay on MCF-7 cells [6], the “late apoptosis cell population” value is recorded as “significant increase”. In the assay with NIH/3T3 cells [7], this molecule showed a live cells of 72%.
